Target: T1, human MGL from HeLa cells (Homo sapiens, UniProt Q99685)
T1 construct: combining endogenously expressed MGL from HeLa cells with test compounds; endogenous in cells; host or cells: HeLa cells / cell homogenates
T1 sequence (Q99685 1-303): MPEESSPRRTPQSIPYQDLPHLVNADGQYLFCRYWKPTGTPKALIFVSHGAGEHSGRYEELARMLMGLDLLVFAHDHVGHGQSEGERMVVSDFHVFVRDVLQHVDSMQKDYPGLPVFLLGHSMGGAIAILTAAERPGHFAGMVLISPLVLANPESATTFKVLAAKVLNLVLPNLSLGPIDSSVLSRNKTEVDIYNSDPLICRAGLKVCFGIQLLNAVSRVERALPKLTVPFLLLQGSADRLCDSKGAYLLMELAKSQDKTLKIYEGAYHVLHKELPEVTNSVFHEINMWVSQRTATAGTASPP
Test: In vitro MGL activity assay: [glycerol-1,3-3H]-oleyl glycerol cleavage by MGL from HeLa cells
Format: biochemical
Details: 300 nM [Glycerol-1,3-3H]-oleyl glycerol, one hour
Description: MGL is the predominant hydrolase in HeLa cells/cell homogenates.

Compound	IC50
Cc1nc(C(=O)N2CCc3c(nn(C)c3-c3cc(F)c(F)c(F)c3)[C@@H]2C)c2cnn(C)c2n1 [Example 617, (S)-(1,6-Dimethyl-1H-pyrazolo[3,4-d]pyrimidin-4-yl)(2,7-dimethyl-3-(3,4,5-trifluorophenyl)-2,4,5,7-tetrahydro-6H-pyrazolo[3,4-c]pyridin-6-yl)methanone]	0.0324 µM
C[C@H]1c2nn(C)c(-c3ccccc3C(F)(F)F)c2CCN1C(=O)c1ccc2ncccc2c1 [Example 493, [(7S)-2,7-Dimethyl-3-[2-(trifluoromethyl)phenyl]-5,7-dihydro-4H-pyrazolo[3,4-c]pyridin-6-yl]-(6-quinolyl)methanone]	2.36 µM
C[C@H]1c2nn(C)c(-c3cc(F)c(F)c(F)c3)c2CCN1C(=O)c1cccn2ccnc12 [Example 392, [(7S)-2,7-Dimethyl-3-(3,4,5-trifluorophenyl)-5,7-dihydro-4H-pyrazolo[3,4-c]pyridin-6-yl]-imidazo[1,2-a]pyridin-8-yl-methanone]	0.711 µM
C[C@H]1c2nn(C)c(-c3cc(F)c(F)c(F)c3)c2CCN1C(=O)c1cncc2c(F)cccc12 [Example 546, [(7S)-2,7-Dimethyl-3-(3,4,5-trifluorophenyl)-5,7-dihydro-4H-pyrazolo[3,4-c]pyridin-6-yl]-(8-fluoro-4-isoquinolyl)methanone]	0.00506 µM
Cc1nccn2nc(C3CC3)c(C(=O)N3CCc4c(nn(C)c4-c4cc(F)c(F)c(F)c4)[C@@H]3C)c12 [Example 447, (2-Cyclopropyl-4-methyl-pyrazolo[1,5-a]pyrazin-3-yl)-[(7S)-2,7-dimethyl-3-(3,4,5-trifluorophenyl)-5,7-dihydro-4H-pyrazolo[3,4-c]pyridin-6-yl]methanone]	0.392 µM
C[C@H]1c2nn(C)c(-c3ccc(OC(F)F)nc3)c2CCN1C(=O)c1ccc2ncccc2c1 [Example 527, [(7S)-3-[6-(Difluoromethoxy)-3-pyridyl]-2,7-dimethyl-5,7-dihydro-4H-pyrazolo[3,4-c]pyridin-6-yl]-(6-quinolyl)methanone]	0.278 µM
COc1ccn2ncc(C(=O)N3CCc4c(nn(C)c4-c4cc(F)c(F)c(F)c4)[C@@H]3C)c2c1 [Example 389, [(7S)-2,7-Dimethyl-3-(3,4,5-trifluorophenyl)-5,7-dihydro-4H-pyrazolo[3,4-c]pyridin-6-yl]-(5-methoxypyrazolo[1,5-a]pyridin-3-yl)methanone]	0.00994 µM
Cc1cnn2ncc(C(=O)N3CCc4c(nn(C)c4-c4cc(F)c(F)c(F)c4)[C@@H]3C)c2c1 [Example 443, [(7S)-2,7-Dimethyl-3-(3,4,5-trifluorophenyl)-5,7-dihydro-4H-pyrazolo[3,4-c]pyridin-6-yl]-(5-methylpyrazolo[1,5-b]pyridazin-3-yl) methanone]	0.0124 µM
Cc1cnc2c(C(=O)N3CCc4c(nn(C)c4-c4cc(F)c(F)c(F)c4)[C@@H]3C)ncn2c1 [Example 461, [(7S)-2,7-Dimethyl-3-(3,4,5-trifluorophenyl)-5,7-dihydro-4H-pyrazolo[3,4-c]pyridin-6-yl]-(3-methylimidazo[1,5-a]pyrimidin-8-yl)methanone]	1.01 µM
C[C@H]1c2nn(C)c(-c3cc(F)c(F)c(F)c3)c2CCN1C(=O)c1nnc2ccccn12 [Example 437, [(7S)-2,7-Dimethyl-3-(3,4,5-trifluorophenyl)-5,7-dihydro-4H-pyrazolo[3,4-c]pyridin-6-yl]-([1,2,4]triazolo[4,3-a]pyridin-3-yl)methanone]	0.187 µM

Same assay, conditions: 300 nM [Glycerol-1,3-3H]-oleyl glycerol, one hour incubation

Compound	IC50
C[C@H]1c2nn(C)c(-c3cc(F)c(F)c(F)c3)c2CCN1C(=O)c1cccc(F)c1-n1nccn1 [Example 195, (S)-(2,7-Dimethyl-3-(3,4,5-trifluorophenyl)-2,4,5,7-tetrahydro-6H-pyrazolo[3,4-c]pyridin-6-yl)(3-fluoro-2-(2H-1,2,3-triazol-2-yl)phenyl)methanone]	0.309 µM
Cn1nc2c(c1-c1ccccc1)CCN(C(=O)c1cccc3c1OC(F)(F)O3)C2 [Example 30, (2,2-Difluorobenzo[d][1,3]dioxol-4-yl)(2-methyl-3-phenyl-2,4,5,7-tetrahydro-6H-pyrazolo[3,4-c]pyridin-6-yl)methanone]	1.04 µM
CC1c2nn(C)c(-c3cccc4ccn(C)c34)c2CCN1C(=O)c1ccc2ncccc2c1 (stereo not shown) [Example 253, (2,7-Dimethyl-3-(1-methyl-1H-indol-7-yl)-2,4,5,7-tetrahydro-6H-pyrazolo[3,4-c]pyridin-6-yl)(quinolin-6-yl)methanone]	1.61 µM
Cc1c(C(=O)N2CCc3c(nn(C)c3-c3ccccc3)C2)cccc1N1CCOCC1 [Example 19, (2-Methyl-3-morpholinophenyl)(2-methyl-3-phenyl-2,4,5,7-tetrahydro-6H-pyrazolo[3,4-c]pyridin-6-yl)methanone]	4.82 µM
C[C@H]1c2nn(C)c(-c3cc(F)c(F)c(F)c3)c2CCN1C(=O)c1cccc(OC(F)(F)F)c1 [Example 262, [(7S)-2,7-Dimethyl-3-(3,4,5-trifluorophenyl)-5,7-dihydro-4H-pyrazolo[3,4-c]pyridin-6-yl]-[3-(trifluoromethoxy)phenyl]methanone]	0.0528 µM
COc1cccc(C(=O)N2CCc3c(nn(C)c3-c3cc(F)c(F)c(F)c3)[C@@H]2C)c1Cl [Example 191, (S)-(2-Chloro-3-methoxyphenyl)(2,7-dimethyl-3-(3,4,5-trifluorophenyl)-2,4,5,7-tetrahydro-6H-pyrazolo[3,4-c]pyridin-6-yl)methanone]	0.00256 µM
Cn1nc2c(c1-c1ccccc1)CCN(C(=O)c1cccc(OC(F)F)n1)C2 [Example 24, (6-(Difluoromethoxy)pyridin-2-yl)(2-methyl-3-phenyl-2,4,5,7-tetrahydro-6H-pyrazolo[3,4-c]pyridin-6-yl)methanone]	2.56 µM
Cc1cnc2cc(C(=O)N3CCc4c(nn(C)c4-c4cc(F)c(F)c(F)c4)[C@@H]3C)ccc2n1 [Example 243, (S)-(2,7-Dimethyl-3-(3,4,5-trifluorophenyl)-2,4,5,7-tetrahydro-6H-pyrazolo[3,4-c]pyridin-6-yl)(2-methylquinoxalin-6-yl)methanone]	0.025 µM
C[C@H]1c2nn(C)c(-c3cc(F)cc(F)c3)c2CCN1C(=O)c1ccc(F)c(OCCF)c1 [Example 144, (S)-(3-(3,5-Difluorophenyl)-2,7-dimethyl-2,4,5,7-tetrahydro-6H-pyrazolo[3,4-c]pyridin-6-yl)(4-fluoro-3-(2-fluoroethoxy)phenyl)methanone]	0.055 µM
Cc1cc(C(=O)N2CCc3c(nn(C)c3-c3cc(F)c(F)c(F)c3)[C@@H]2C)cc2cn[nH]c12 [Example 210, (S)-(2,7-Dimethyl-3-(3,4,5-trifluorophenyl)-2,4,5,7-tetrahydro-6H-pyrazolo[3,4-c]pyridin-6-yl)(7-methyl-1H-indazol-5-yl)methanone]	0.0006 µM
CCc1nc(C(=O)N2CCc3c(nn(C)c3-c3cc(F)c(F)c(F)c3)[C@@H]2C)nn1-c1ccccc1 [Example 202, (S)-(2,7-Dimethyl-3-(3,4,5-trifluorophenyl)-2,4,5,7-tetrahydro-6H-pyrazolo[3,4-c]pyridin-6-yl)(5-ethyl-1-phenyl-1H-1,2,4-triazol-3-yl)methanone]	0.00739 µM
COc1ccc(C(=O)N2CCc3c(nn(C)c3-c3cc(F)c(F)c(F)c3)[C@@H]2C)cn1 [Example 300, [(7S)-2,7-Dimethyl-3-(3,4,5-trifluorophenyl)-5,7-dihydro-4H-pyrazolo[3,4-c]pyridin-6-yl]-(6-methoxy-3-pyridyl)methanone]	0.263 µM

Reference: patent US11820766B2, “Monoacylglycerol lipase modulators” (Janssen Pharmaceutica NV, priority 2018, dated 2023)
